Test [1] relates to L. mexicana Cas9 promastigotes. In words: Alamar blue drug sensitivity assay, L. mexicana Cas9 promastigotes. It is filed as cell-based, Leishmania mexicana. The following applies: Leishmania mexicana, 120 h, 72 h + 48 h resazurin, at least 3 independent determinations, read-out: EC50 (µM) AVG ± SEM, Cas9. Put shortly:
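Promastigotes cultured in HOMEM with 10% FBS at 25 °C were added as a 2 × 10^6 cells mL^−1 culture to 23-point compound dilutions. After 72 h at 25 °C, resazurin was added for a further 48 h, and fluorescence was read at ex 544/em 620 nm. EC50 came from a variable-slope sigmoid fit (3–4 independent experiments).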

Test [2] concerns L. mexicana Cas9^ΔNT1 promastigotes. In words: Alamar blue drug sensitivity assay, L. mexicana Cas9^ΔNT1 promastigotes. It counts as cell-based, Leishmania mexicana. The note with it: EC50 Cas9^ΔNT1 relative to L. mexicana Cas9. The text has this: We used L. mexicana promastigotes of the Cas9 strain developed by Beneke at al. to generate the ΔNT1 strain, and from there the Cas9^ΔNT1+TcrNT2 (see below); The original Cas9 strain was generously donated by Prof. Eva Gluenz (University of Bern, Switzerland). All strains in standard HOMEM (GIBCO, Life Technologies, Paisley, UK) supplemented with 10% heat-inactivated fetal bovine serum (FBS; PAA Laboratories, Linz, Austria) and 1% of a penicillin–streptomycin solution (10,000 U mL^−1 each; Life Technologies) at 25 °C, as described.
The Alamar blue assay (resazurin sodium salt) was used to determine the drug sensitivity of the L. mexicana promastigotes in vitro. The assay is based on the reduction of resazurin sodium salt (blue and non-fluorescent) to resorufin (pink color and fluorescent) by live cells. HOMEM medium with 10% FBS (100 μL) was added to all wells of a white 96-well plate apart from the first well. 200 μL of a known concentration of test compounds was diluted in HOMEM medium and placed in the first well. Compounds were tested in one plate and every compound was diluted over two rows (23 concentrations), leaving the last well of every dilution as a negative control having 100 μL HOMEM medium. Next, 100 μL of L. mexicana culture at a density of 2 × 10^6 cells mL^−1 was added into every well in the plate and incubated for 72 h at a temperature of 25 °C after which resazurin sodium salt (Sigma) (20 μL of a solution of 12.5 mg in 100 mL PBS) was added and the plate was incubated under the same conditions for a further 48 h. Fluorescence was measured in a FLUOstar OPTIMA plate reader (BMG Labtech, Germany), at a wavelength of 544 nm for excitation and 620 nm for emission. The EC50 values and fluorescence data were determined and plotted by the GraphPad Prism 8 Software using an equation for a sigmoid curve with variable slope. Pentamidine was used as positive control and every experiment was performed 3–4 times independently.

Another test has as its system L. mexicana. Also on record: method as in PMID 28453984. The following applies: ref [36]; read-out: EC50 against L. mexicana; cited from earlier work.
Test [3] concerns bloodstream form T. brucei. Also on record: method as in PMID 23188714, PMID 23505454. The note with it: ref [47],[54]; read-out: EC50 against bloodstream form T. brucei; cited from earlier work.
A further test deals with TcrNT2 (Trypanosoma cruzi, UniProt Q4DHG0). Briefly: Transport of [^3H]-thymidine by TcrNT2 expressed in L. mexicana Cas9^ΔNT1 (Km, inhibition). It counts as cell-based. Summed up:
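L. mexicana Cas9ΔNT1 expressing TcrNT2, 10^7 cells per point, incubated with [3H]-thymidine for a set time, stopped with ice-cold buffer containing excess unlabeled permeant and oil-spin separation. Km by Michaelis-Menten fit; IC50 by sigmoid fit converted to Ki via Cheng-Prusoff, with ΔG° = −RTln(Ki).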

Chain of TcrNT2 (Q4DHG0 entry or part of it): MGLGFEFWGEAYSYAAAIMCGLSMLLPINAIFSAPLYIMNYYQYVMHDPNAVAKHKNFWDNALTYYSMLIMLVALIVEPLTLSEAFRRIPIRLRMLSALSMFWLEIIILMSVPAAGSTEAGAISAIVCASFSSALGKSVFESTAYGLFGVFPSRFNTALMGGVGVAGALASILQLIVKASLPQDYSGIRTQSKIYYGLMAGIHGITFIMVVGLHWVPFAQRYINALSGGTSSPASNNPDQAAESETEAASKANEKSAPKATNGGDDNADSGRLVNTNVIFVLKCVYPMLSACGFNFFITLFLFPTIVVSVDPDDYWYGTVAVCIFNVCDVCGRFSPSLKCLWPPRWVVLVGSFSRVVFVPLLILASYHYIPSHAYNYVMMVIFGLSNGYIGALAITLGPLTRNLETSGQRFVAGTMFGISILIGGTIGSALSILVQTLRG

In the case of `O=c1[nH]c(=O)n([C@H]2C[C@H](O)[C@@H](CO)O2)cc1F` [5-F-2′-dUrd, 5-F-2′-deoxyuridine], the EC50 is 2.19 ± 0.11 µM in test [1], 1.7 µM in the test on L. mexicana and 5.2 µM in test [3]. In addition, the “RF vs. Cas9 (resistance factor)” value in test [2] came to 26.6. For the same compound, the “ΔG° (Gibbs free energy of interaction)” value at TcrNT2 (calculated from Km or Ki at 25 °C) is -7.93 kcal/mol. Besides, on TcrNT2 (change in ΔG° relative to thymidine), the “δ(ΔG°) with respect to ΔG° of thymidine” value was -1.03 kcal/mol. In addition, on TcrNT2 (read-out: Ki on the transport of [^3H]-thymidine by TcrNT2), the Ki turned out to be 1.5 ± 0.12 µM.

The record behind these values is PMC9693223 (Molecules, 2022).
